Experimental data as given in US9782366B2, “Drug for killing acid-fast (red) bacillus” (priority 2013, dated 2017).
“And” between values parts separate entries of the source, which are not always exact repeats. Identical values can stand only once. “Also recorded” adds a separate entry of the source. Counter-ions that a name gives are not always drawn.

Tests used:
M. tuberculosis = test: Basic Fuchsine for treatment of Tuberculosis (patients); type: in vivo, human; conditions: for Drug treatment after 1 month (TB status, symptoms): individual TB patient, capsule 500 mg (basic fuchsine:ground rice 3:2), 1-2 capsule/day oral, hydrochloride
Procedure: Basic Fuchsine for treatment of Tuberculosis
Dosage for patient: Capsule, 500 mg/capsule, where the weight ratio of basic fuchsine to ground rice is 3:2, each patient takes 1˜2 capsule/day.
Method of administration: Every morning, before breakfast, take the capsule, three month as one treatment course, see Table 5 for patients' records, see Table 6 for treatment results.
1. All patients were diagnosis and confirmed by standard TB hospital or TB prevention and treatment center, and all patients encountered disease recurrence after conventional standard drug treatment.
3. Before drug treatment with basic fuchsine drug, all patients have obvious symptoms: body weakness, discomfort, fever, cough, night sweat, ascites, blood spitting, blood vomiting, etc. (skeletal TB patient experience pain, some experience amenorrhea).

[1] = Toxicity Test of Basic Fuchsine in guinea pigs; conditions: guinea pigs, 8, 6 and 4 mg/kg body weight/d, once per day, 21 days
Source text: Materials: 24 white guinea pigs, purchased from Shenyang Pharmaceutical University, regular feeding; Basic fuchsine, from Tianjin Ju Hua Chemical Company Limited.
Matching and grouping of experimental animals: randomly divided into 4 groups (each group includes 6 counts, equal number of male and female), namely, control, high, medium, low fuchsine dosage group.
Method of administration: For each guinea pig, administered one time per day at a fixed time in the morning, the dosage for high, medium, low fuchsine dosage group are 8 mg/kg body weight/d, 6 mg/kg body weight/d, and 4 mg/kg body weight/d respectively; the drug administration period is 21 days, observe 3˜4 times per day, observe the guinea pig by spirit condition, appetite, gloss level of skin and hairs, physical condition, alertness and ability to escape.

blood cells = conditions: human, in vivo, po
Source text: After taking basic fuchsine, the basic fuchsine activity over time can be observed through the blood phenomenon at different times.
Healthy individual as normal subject for observation
Patient recovered from the disease who volunteer to testing subject as volunteer subject
Binocular microscope xsp-12G model
Wright-Giemsa stain solution (available in the market)
Phosphate buffer (available in the market)
Obtain peripheral blood smear from normal subject and volunteer subject (normal control blood film, standby use)
Obtain peripheral blood smear from volunteer subject at different time after taking fuchsine (oral fuchsine blood film, standby use)
After the last blood sampling is complete, carrying staining together with the blood film before taking fuchsine orally of volunteer subject and the peripheral blood film of normal subject
V. observe oral fuchsine blood film under microscope with 100× objective lens (oil immersion) and 12.5× eyepiece, real object is viewed under magnification at 1250 times and the results are shown in Table 3.

[2] = tested on: Mycobacterium tuberculosis; test: Drug Susceptibility Testing on Lowenstein-Jensen medium; type: cell-based
Procedure: Drug Susceptibility Testing
(II) Culture Method: Lowenstein-Jensen medium (Improved method)
KH2PO4: 2.4 g; MgSO4.7H2O 0.24 g; magnesium citrate: 0.6 g; asparagine: 3.6 g; glycerin: 12 ml; distilled water: 600 ml; potato starch: 30 g; fresh whole egg liquid: 1000 ml; 2% malachite green solution: 20 ml
4. Drug: 2% basic fuchsine aqueous solution: 100 ml
Add water to KH2PO4, MgSO4.7H2O, magnesium citrate, asparagine and glycerin, dissolve through heating in a boiling water bath, then add potato starch and continue heating in water bath for 30 minutes, stir continuously to form a uniform paste. After cooling to about 60° C., add 1000 ml fresh whole egg liquid and 20 ml 2% malachite green solution, mix thoroughly and then filter by double-layered gauze, then dispensed into test tube with screw cap. 7 ml of the prepared solution is added to each test tube, then add the 2% basic fuchsine solution according to a specific proportion into the test tube (see Table 3 for the adding amount), then place the test tube into the 85% steam incubator for 90 minutes, cooling to 60° C. or below and then place the test tube inclinedly into the biological safety cabinet (also called purification station), thereby the culture medium is cooled to solidify and form an incline surface. Put 10^−2/ml living bacilli solution of Mycobacterium tuberculosis to the incline surface of the culture medium. The living bacilli solution for each tube is 0.1 ml. The concentration of bacilli solution in the culture medium is 10^−3 mg/ml. Place in Digital Biochemical Incubator to culture. After culture for 5 weeks, no bacteria growth refers to drug susceptibility, continue bacteria growth refers to drug non-susceptibility (See Table 4 for testing results).

Leprosy ulcers = test: Basic Fuchsine for Treatment of Leprosy (patients); type: in vivo, human; conditions: individual leprosy ulcer patient, treatment method External
[3] = Change of urine pH with time after taking basic fuchsine; type: in vivo, human; conditions: for Urine pH value, Average: average of 9 patients, before drug 6; for Patent's urine pH value: individual patient (vegetarian), hydrochloride
Procedure: Therefore, the infected body, which is weakly acidic, is recovered to become weakly basic and this is beneficial to increasing the body's immunity such that Mycobacterium tuberculosis can be inhibited or removed. Because the integration of lysosomes inside macrophage with phagosome cannot be prevented, the bacteria can be removed. The changes in urine pH after taking basic fuchsine is illustrated in Table 2 and FIG. 1:
Remarks: The urine pH value reached the peak value at 2-3 hours after taking drug, and the peak period can sustain for 3-4 hours, then return to normal at 5-6 hours after taking drug.

Structure (SMILES): Cc1cc(C(=C2C=CC(=N)C=C2)c2ccc(N)cc2)ccc1N [basic fuchsine, rosaniline hydrochloride]
- M. tuberculosis (acid-fast bacilli) in sputum after taking basic fuchsine for one month (M. tuberculosis; TB patients): no M. tuberculosis is found in sputum
- Patients' blood test for liver and kidney after taking basic fuchsine (M. tuberculosis; TB patients): normal
- TB symptoms after taking basic fuchsine for three months (M. tuberculosis; TB patients): TB symptoms are eliminated
- X-ray after taking basic fuchsine for six months (M. tuberculosis; TB patients): recovery are confirmed through X-ray
- Adverse reactions / side effect during the course of treatment (M. tuberculosis; all cases): no side effect is observed in all cases
- Drug treatment after 1 month (TB status, symptoms) (M. tuberculosis; 1 capsule/day): TB Improved (−); also recorded: Improved TB (−)
- Drug treatment after 1 month (TB status, symptoms) (M. tuberculosis; 2 capsule/day): Pain reduced
- Symptoms after taking basic fuchsine for one month (M. tuberculosis; majority of TB patients): Symptoms are significantly reduces
- Liver or kidney damage (M. tuberculosis; patients taking drug for more than two years): no liver or kidney damages is observed
- Recurrence (M. tuberculosis; patients who are recovered): no single occurrence of recurrence
- Observation of spirit condition, appetite, skin and hairs, physical condition, alertness, ability to escape [1]: No changes is observed
- Time remained inside the cell after absorption into blood (blood cells): 2 to 4 h
- Testing results (bacteria growth) ([2]; Tube 1, 0.7 ml 2% basic fuchsine solution, final dilution factor 500, 5 weeks at 36 C): Grow
- Testing results (bacteria growth) ([2]; Tube 2, 0.525 ml 2% basic fuchsine solution, final dilution factor 750, 5 weeks at 36 C): Grow
- Testing results (bacteria growth) ([2]; Tube 3, 0.35 ml 2% basic fuchsine solution, final dilution factor 1000, 5 weeks at 36 C): Grow
- Remarks (outcome) (Leprosy ulcers): Absorbed,
- Time at which urine pH value reached the peak value ([3]; after taking drug): 2-3 hours
- Time of return of urine pH to normal ([3]; after taking drug): 5-6 hours
- Time the urine pH peak period can sustain ([3]; after taking drug): 3-4 hours
- Urine pH value, Average ([3]; After drug 1 h): 6.5
- Urine pH value, Average ([3]; After drug 2 h): 7
- Urine pH value, Average ([3]; After drug 3 h): 6.5
- Urine pH value, Average ([3]; After drug 4 h): 6.5
- Urine pH value, Average ([3]; After drug 5 h): 6
- Urine pH value, Average ([3]; After drug 6 h): 6
- Patent's urine pH value ([3]; After drug 1 h): 6 (2×) and 6.5 (5×) and 7 (2×)
- Patent's urine pH value ([3]; After drug 2 h): 6.5 (2×) and 7 (5×) and 7.5 (2×)
- Patent's urine pH value ([3]; After drug 3 h): 6 (2×) and 6.5 (5×) and 7 (2×)
- Patent's urine pH value ([3]; After drug 4 h): 6 (2×) and 6.5 (5×) and 7 (2×)
- Patent's urine pH value ([3]; After drug 5 h): 5.5 (2×) and 6 (5×) and 6.5 (2×)
- Patent's urine pH value ([3]; After drug 6 h): 5.5 (2×) and 6 (5×) and 6.5 (2×)
